Experiment [1] addresses T1, Agrobacterium sp. β-glucosidase/galactosidase (Agrobacterium sp., UniProt P12614).
T1 construct: made in house
T1 sequence (P12614 1-459): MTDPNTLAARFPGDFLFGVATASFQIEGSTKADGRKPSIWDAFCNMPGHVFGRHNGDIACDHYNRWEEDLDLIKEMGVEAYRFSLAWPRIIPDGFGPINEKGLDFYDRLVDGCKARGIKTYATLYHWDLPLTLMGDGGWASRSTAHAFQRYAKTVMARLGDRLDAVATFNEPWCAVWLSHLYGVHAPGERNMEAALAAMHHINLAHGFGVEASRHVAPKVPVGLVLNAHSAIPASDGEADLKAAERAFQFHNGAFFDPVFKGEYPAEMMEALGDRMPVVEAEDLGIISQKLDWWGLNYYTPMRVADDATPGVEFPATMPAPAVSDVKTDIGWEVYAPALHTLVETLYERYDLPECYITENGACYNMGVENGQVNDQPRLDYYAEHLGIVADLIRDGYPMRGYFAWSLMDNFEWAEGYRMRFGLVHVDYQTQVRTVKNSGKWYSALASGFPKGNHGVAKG
The experiment is described as follows: Inhibition of Agrobacterium sp. β-glucosidase/galactosidase (Abg), Ki by kinetic studies. The experiment is classed as biochemical. On the procedure: glycosidase was purified and assayed as described. Kinetic studies were performed at 37 °C in pH 7.0 sodium phosphate buffer (50 mM) containing 0.1 % bovine serum albumin, using 7.2 x 10-5 mg/mL enzyme. Approximate values of Ki were determined using a fixed concentration of substrate, 4-nitrophenyl β-D- […]
times to 5 times the Ki value ultimately determined. A horizontal line drawn through […]
an inhibitor concentration equal to -Ki. Full Ki determinations where required, were performed using the same range of inhibitor concentrations while also varying substrate (4-nitrophenyl glucoside) concentrations from approximately 0.015 mM to 0.6 mM. Data were analysed by direct fit to the Michaelis Menten equation describing reaction in the presence of inhibitors using the program GraFit. […]

The target in experiment [2] is T2, green coffee bean α-galactosidase (Coffea arabica, UniProt Q42656).
T2 construct: made in house
In words: Inhibition of green coffee bean α-galactosidase, Ki by kinetic studies. The experiment is classed as biochemical. The conditions noted are these: 37 °C, pH 6.5, substrate PNP-Gal; read-out: Ki α-gal GCB. As for the experimental part:
Green coffee bean α-galactosidase was purified and assayed as described.
Kinetic studies were performed at 37°C in 50 mM sodium phosphate buffer, pH 6.5 containing 0.1% serum albumin. Reactions were initiated by the addition of enzyme (final concentration = 0.3 µg/mL), bringing the total volume to 200µL. Reaction rates were measured by monitoring the release of p-nitrophenolate (λ = 400 nm, ε = […]) from PNP-Gal by means of a UNICAM 8700 UV-Vis spectrophotometer equipped with a circulating water bath. Inhibition studies were performed by varying […]
concentrations of both PNP-Gal and inhibitor. Ki values were calculated by direct fit of the initial rates to the equation below using Grafit. […]

Experiment [3] has as its system β-galactosidase mutant feline fibroblast cell line. In words: Chemical chaperone activity in β-galactosidase mutant feline fibroblast cell line. The experiment is classed as cell-based. The conditions noted are these: preliminary; for increase of enzyme activity of β-galactosidase mutant: concentration 100 µM.
For another experiment, the target named is T3, E. coli β-galactosidase (Escherichia coli, UniProt P00722).
T3 construct: purchased Sigma Chemicals
In words: Inhibition of E. coli β-galactosidase, Ki by kinetic studies. It counts as biochemical. As for the experimental part:
E. coli β-galactosidase was purchased from Sigma Chemicals. Kinetic studies were performed at 37°C in 100 mM sodium phosphate buffer, pH 7.0 containing 0.1% serum albumin. Rates of reaction were determined as a function of both varying substrate and inhibitor concentration over the concentration ranges indicated below.
Data obtained were analysed using a nonlinear regression analysis program GraFit, p-nitrogalactopyranoside (Km = 0.03 mM), 0.045 – 0.3 mM). […]

The next experiment concerns β-galactosidase. Further details: method as in PMID 19812739. The conditions noted are these: GM1-gangliosidosis model mice, orally administered; cited from earlier work.
For experiment [4], the target named is T4, human lysosomal β-galactosidase (Homo sapiens, UniProt P16278).
T4 sequence (P16278 29-677): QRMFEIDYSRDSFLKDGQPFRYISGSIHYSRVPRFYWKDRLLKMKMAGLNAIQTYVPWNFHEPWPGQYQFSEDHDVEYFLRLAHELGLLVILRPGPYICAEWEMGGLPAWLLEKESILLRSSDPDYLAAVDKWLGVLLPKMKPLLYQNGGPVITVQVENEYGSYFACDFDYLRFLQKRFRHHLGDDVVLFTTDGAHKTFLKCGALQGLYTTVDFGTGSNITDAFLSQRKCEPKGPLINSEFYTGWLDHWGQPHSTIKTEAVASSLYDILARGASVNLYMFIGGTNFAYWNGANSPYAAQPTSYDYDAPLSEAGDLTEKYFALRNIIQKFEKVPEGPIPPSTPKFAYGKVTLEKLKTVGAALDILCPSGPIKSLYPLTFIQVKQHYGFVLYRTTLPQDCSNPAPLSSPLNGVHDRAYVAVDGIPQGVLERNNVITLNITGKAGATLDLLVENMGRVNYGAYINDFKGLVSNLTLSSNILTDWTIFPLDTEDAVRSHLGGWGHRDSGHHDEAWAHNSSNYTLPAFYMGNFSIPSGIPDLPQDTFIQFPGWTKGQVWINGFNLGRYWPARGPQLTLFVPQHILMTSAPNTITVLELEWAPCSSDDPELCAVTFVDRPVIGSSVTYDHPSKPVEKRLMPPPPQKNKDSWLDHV
In words: Inhibition of human lysosomal β-galactosidase. It counts as biochemical.

For a further experiment, the system named is α-galactosidase A. Also on record: method as in PMID 17894781, PMID 18381081, PMID 19387866, PMID 19287194. The note with it: cultured Fabry patient cell lines, incubation for five days, 49 missense mutant forms; cited from earlier work.
The test system of experiment [5] is tissue globotriaosylceramide levels. Further details: method as in PMID 19773742. The conditions noted are these: mouse model; cited from earlier work.
[6] abbreviates: 37 °C, pH 7.0, read-out: Ki β-gal E. coli.

As a reminder, the IC50 is the concentration at which inhibition is half-maximal.

Where two headings read alike, the source gives them in different places.

T3 sequence (P00722 2-1024 limits assumed): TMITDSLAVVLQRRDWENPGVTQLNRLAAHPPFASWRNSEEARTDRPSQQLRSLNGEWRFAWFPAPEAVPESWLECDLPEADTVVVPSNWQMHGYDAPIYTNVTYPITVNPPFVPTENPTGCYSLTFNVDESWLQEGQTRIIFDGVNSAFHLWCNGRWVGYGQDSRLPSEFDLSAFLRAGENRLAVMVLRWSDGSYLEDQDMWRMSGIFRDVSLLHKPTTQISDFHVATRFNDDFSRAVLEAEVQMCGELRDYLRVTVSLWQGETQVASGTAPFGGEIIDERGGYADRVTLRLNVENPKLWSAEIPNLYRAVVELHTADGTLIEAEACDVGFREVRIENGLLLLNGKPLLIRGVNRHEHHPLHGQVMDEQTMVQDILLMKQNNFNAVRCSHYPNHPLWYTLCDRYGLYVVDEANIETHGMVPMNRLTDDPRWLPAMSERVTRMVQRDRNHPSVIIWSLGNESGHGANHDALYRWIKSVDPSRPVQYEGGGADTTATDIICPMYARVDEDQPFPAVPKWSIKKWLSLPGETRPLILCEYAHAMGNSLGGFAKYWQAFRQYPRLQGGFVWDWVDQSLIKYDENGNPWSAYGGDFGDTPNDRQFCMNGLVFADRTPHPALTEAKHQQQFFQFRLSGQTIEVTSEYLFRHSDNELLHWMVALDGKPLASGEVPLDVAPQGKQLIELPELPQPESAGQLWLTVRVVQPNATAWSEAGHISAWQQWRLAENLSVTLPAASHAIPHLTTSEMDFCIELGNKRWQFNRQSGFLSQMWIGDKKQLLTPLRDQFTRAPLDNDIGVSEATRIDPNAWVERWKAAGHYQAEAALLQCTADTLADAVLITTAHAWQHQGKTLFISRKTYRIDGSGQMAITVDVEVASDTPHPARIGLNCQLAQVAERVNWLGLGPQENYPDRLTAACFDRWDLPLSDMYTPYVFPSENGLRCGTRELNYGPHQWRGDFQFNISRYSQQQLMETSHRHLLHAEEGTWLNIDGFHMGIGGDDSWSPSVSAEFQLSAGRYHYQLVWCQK
T2 sequence (Q42656 16-378): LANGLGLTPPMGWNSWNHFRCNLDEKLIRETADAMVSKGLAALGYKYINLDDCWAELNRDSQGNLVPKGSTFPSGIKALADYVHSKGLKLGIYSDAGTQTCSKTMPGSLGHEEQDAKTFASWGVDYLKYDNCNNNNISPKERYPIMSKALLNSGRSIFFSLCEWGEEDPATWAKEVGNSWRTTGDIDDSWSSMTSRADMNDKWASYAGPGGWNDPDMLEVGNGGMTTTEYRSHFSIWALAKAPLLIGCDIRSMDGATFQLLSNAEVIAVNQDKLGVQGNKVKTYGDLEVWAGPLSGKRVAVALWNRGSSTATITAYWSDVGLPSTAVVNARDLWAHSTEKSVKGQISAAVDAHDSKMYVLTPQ

`CN(C)c1ccc(C(=O)NCCCCCCN2C[C@H](O)[C@@H](O)[C@@H](O)[C@H]2CO)cc1` [Compound 18]: the Ki was determined as 3.8 µM in experiment [1], 490 nM in experiment [2] and 1100 nM on E. coli β-galactosidase (setting [6]). The “increase of relative enzyme activity of β-galactosidase mutant” value in experiment [3] (concentration 2 µM) worked out at 4.8 fold.
As for `CCCCCCCCN[C@@H]1C=C(CO)[C@H](O)[C@H](O)[C@H]1O` [N-octyl-4-epi-β-valienamine], the “β-galactosidase activity in brain after oral administration” value in the experiment on β-galactosidase is “enhancing β-galactosidase activity”.
On to `O=C(NCCCCCCN1C[C@H](O)[C@@H](O)[C@@H](O)[C@H]1CO)OCc1ccccc1` [Compound 22], for which the Ki in experiment [1] turned out to be 6 µM; in experiment [2] it was 2200 nM; in experiment [4] it was 720 nM; at E. coli β-galactosidase (setting [6]) it was 400 nM. Further, the “increase of enzyme activity of β-galactosidase mutant” value in experiment [3] is reported as “up to 5.5 fold”. The molecule also displayed an IC50 in experiment [4] of 3.26 µM.
`O=C(NCCCCCCN1C[C@H](O)[C@@H](O)[C@@H](O)[C@H]1CO)c1cccnc1` [Compound 17]: the Ki in experiment [1] came to 1.5 µM; in experiment [2] it was 2200 nM; on E. coli β-galactosidase (setting [6]), 830 nM. Further, the “increase of enzyme activity of β-galactosidase mutant” value in experiment [3] was “up to 5.5 fold”.
For `O=C(CCCc1ccc2ccc3cccc4ccc1c2c34)NCCCCCCN1C[C@H](O)[C@@H](O)[C@@H](O)C1CO` (stereo partly shown) [Compound 19], the values for the Ki (in experiment [1]; in experiment [2]; on E. coli β-galactosidase) were 0.06 µM, 7000 nM and 250 nM, respectively.
Take `CC(C)(C)OC(=O)NCCCCCCN1C[C@H](O)[C@@H](O)[C@@H](O)[C@H]1CO` [Compound 20]: the Ki stood at 3 µM in experiment [1] (read-out: Ki β-glu/gal Abg, 37 °C, pH 7.0, substrate 4-nitrophenyl β-D-glucopyranoside); 4300 nM in experiment [2]; 2000 nM in experiment [4]; 2400 nM on E. coli β-galactosidase (setting [6]). Further, in experiment [4], the IC50 was determined as 10.9 µM.
Regarding `OC[C@H]1NC[C@H](O)[C@@H](O)[C@H]1O` [Compound 4, 1-Deoxygalactonojirimycin], the “increase of α-galactosidase A levels” value in the experiment on α-galactosidase A is reported as 1.5 to 28 fold. The tissue globotriaosylceramide levels result in experiment [5] is reported as “reduce tissue globotriaosylceramide levels”.
In the case of `CC(C)c1ccc(C(=O)NCCCCCCN2C[C@H](O)[C@@H](O)[C@@H](O)[C@H]2CO)cc1` [Compound 16], the values for the Ki (in experiment [1]; in experiment [2]; at E. coli β-galactosidase) were 13 µM, 2600 nM and 1300 nM, respectively.

Values taken from PMC2874416 (Beilstein Journal of Organic Chemistry, 2010).
